Columns and labels:
Ab-R-ATA [1] = target: T1, Ab-R-ATA (Arthrobacter sp. KNK168, UniProt F7J696, R138Q, form not given); test: HPLC of acetophenone formed, initial kinetics; type: biochemical; settings: 10 mM (R)-1-phenylethylamine as amino donor, 0.5 mM PLP, 100 mM Tris-HCl pH 8.5, 30 °C
T1 construct: gene TAS; full length, 330 amino acids, no tag, pUCNT vector, E. coli Rosetta (DE3); homodimer, active site formed with loop 129-145 of the other protomer
From the text: (§1) HPLC of acetophenone formed, initial kinetics on Ab-R-ATA | The kcat/Km values for pyruvate of the R138A and the R138Q mutants

Ab-R-ATA [2] = target: T2, Ab-R-ATA (Arthrobacter sp. KNK168, UniProt F7J696); test: HPLC of acetophenone formed, initial kinetics; type: biochemical; settings: 10 mM (R)-1-phenylethylamine as amino donor, 0.5 mM PLP, 100 mM Tris-HCl pH 8.5, 30 °C
T2 construct: gene TAS; full length, 330 amino acids, no tag, pUCNT vector, E. coli Rosetta (DE3); homodimer, active site formed with loop 129-145 of the other protomer
From the text: as §1

ATA-117-Rd11 = target: T3, ATA-117-Rd11 (Arthrobacter sp. KNK168, UniProt F7J696, S8P/Y60F/L61Y/H62T/V65A/V69T/D81G/M94I/I96L/F122M/S124T/S126T/G136F/Y150S/V152C/A169L/V199I/A209L/G215C/G217N/S223P/L269P/L273Y/T282S/A284G/P297S/S321P); test: X-ray crystal structure, […] Å; type: binding; settings: covalent; internal aldimine
T3 construct: gene TAS; synthetic gene, pET28a N-His tag, thrombin cleaved; E. coli; homodimer

| Km (Ab-R-ATA [1]) [mM] | Km (Ab-R-ATA [2]) [mM] | SMILES | X-ray crystal structure, 2.20 Å (ATA-117-Rd11) |
| --- | --- | --- | --- |
| 66 ± 3 | 5.8 ± 0.1 | CC(=O)C(=O)O [pyruvate] |  |
|  |  | Cc1ncc(COP(=O)(O)O)c(C=O)c1O [PLP] | The cofactor PLP in the active site is shown as green sticks |

Reference: PMC5377235, “A new target region for changing the substrate specificity of amine transaminases” (Scientific Reports, 2015)
